Results as given in article PMC6788984, “High-potency ligands for DREADD imaging and activation in rodents and monkeys” (Nature Communications, 2019).
Where two headings read alike, the source gives them in different places.

Legend:
[1] = molecular target: T1, P-gp (Homo sapiens, UniProt P08183); test: P-glycoprotein (P-gp) substrate assay in Caco-2 cells with and without verapamil; format: in vitro ADME; conditions: Caco-2, efflux ratio with/without verapamil
T1 construct: host or cells: Caco-2
T1 sequence (P08183 whole entry): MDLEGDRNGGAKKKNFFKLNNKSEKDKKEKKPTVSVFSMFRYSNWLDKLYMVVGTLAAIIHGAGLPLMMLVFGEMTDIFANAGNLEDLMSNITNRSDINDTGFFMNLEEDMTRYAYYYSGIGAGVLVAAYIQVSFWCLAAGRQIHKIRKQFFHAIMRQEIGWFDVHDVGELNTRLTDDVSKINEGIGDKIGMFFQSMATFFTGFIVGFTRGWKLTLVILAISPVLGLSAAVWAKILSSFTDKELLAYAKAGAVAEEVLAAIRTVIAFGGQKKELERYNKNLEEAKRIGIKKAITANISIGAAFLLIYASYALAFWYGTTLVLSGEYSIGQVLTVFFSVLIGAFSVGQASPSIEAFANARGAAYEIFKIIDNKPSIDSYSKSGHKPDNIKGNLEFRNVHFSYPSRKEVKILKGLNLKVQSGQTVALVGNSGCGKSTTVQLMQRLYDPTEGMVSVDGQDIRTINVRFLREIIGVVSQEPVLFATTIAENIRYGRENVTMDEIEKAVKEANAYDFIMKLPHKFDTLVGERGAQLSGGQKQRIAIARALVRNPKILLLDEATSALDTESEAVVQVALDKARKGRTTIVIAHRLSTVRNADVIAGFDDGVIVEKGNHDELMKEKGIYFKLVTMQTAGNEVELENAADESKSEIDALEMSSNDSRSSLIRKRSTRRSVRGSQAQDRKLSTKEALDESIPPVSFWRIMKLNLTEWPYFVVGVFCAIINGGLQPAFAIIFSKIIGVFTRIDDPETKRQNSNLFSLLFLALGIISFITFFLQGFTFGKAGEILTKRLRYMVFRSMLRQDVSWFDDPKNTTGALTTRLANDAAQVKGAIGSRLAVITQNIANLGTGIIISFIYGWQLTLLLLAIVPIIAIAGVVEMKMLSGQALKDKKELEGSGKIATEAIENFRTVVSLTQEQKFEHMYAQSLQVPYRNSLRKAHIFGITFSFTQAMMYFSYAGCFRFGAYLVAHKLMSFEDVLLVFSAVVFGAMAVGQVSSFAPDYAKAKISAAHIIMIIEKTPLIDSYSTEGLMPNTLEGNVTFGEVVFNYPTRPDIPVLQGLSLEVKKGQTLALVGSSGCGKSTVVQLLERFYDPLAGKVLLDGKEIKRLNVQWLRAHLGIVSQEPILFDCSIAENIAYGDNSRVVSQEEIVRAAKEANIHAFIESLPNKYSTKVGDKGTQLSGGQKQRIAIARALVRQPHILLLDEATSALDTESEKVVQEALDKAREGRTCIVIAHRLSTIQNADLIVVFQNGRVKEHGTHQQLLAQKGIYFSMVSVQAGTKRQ
Procedure: These experiments were performed by an outside vendor (Eurofins, France). C21 was tested in P-gp substrate assessment assays at 10 µM. The A to B and B to A permeability was measured in Caco-2 cells in the presence and absence of verapamil, a P-gp inhibitor. Efflux ratios (E) were calculated based on the apparent B–A and A–B permeability with and without verapamil. In each experiment, the respective reference compound was tested concurrently with the test compound to assess the assay reliability. Fluorescein was used as the cell monolayer integrity marker. Fluorescein permeability assessment (in the A–B direction at pH 7.4 on both sides) was performed after the permeability assay for the test compound.

[2] = Brain and serum concentrations in mice after IP injection (LC-MS/MS); format: in vivo, mouse; conditions: for brain/serum concentration ratio: 1 mg kg-1 IP; for Kp: C57BL/6J, mouse, brain/serum, ip, 0.1 mg kg-1, mice, read-out: brain/serum concentration ratio; for Kp / brain to serum concentration ratio / brain concentration, mean / serum concentration, mean: 0.1 mg kg-1 IP; for brain to serum concentration ratio: 30 min
Procedure: Monkey blood and CSF samples were collected from totally implanted subcutaneous access ports (Access Technologies, Virginia), connected to catheters indwelling in the femoral artery or intrathecal space of the spinal column, respectively. Rodent blood samples and brains were collected immediately following sacrifice at the indicated time points after intraperitoneal injection (10 ml kg^−1) in buffered saline. CSF was immediately frozen on dry ice and stored at −80 °C. Blood samples were allowed to coagulate for 15 min and then centrifuged at 4 °C for 15 min. Serum was collected from the supernatant and stored at a minimum of −30 °C until extraction. To 25 µl of serum, 5 µl of internal standard and 110 µl of methanol were added. Samples were centrifuged for 10 min at 16,200×g at 4 °C and the supernatant was transferred to the autosampler vial for analysis. Brains were cut in half and weighed prior to sample preparation. Half brains were homogenized in 490 µl of 85% ethanol: 15% water containing 0.1% formic acid and 5 µl of internal standard using a polytron homogenizer and centrifuged for 10 min at 16,200×g at 4 °C. A 300 µl of supernatant was dried under a stream of nitrogen and resuspended in 150 µl methanol. The resuspended solution was then centrifuged and 100 µl of supernatant was transferred to the autosampler vial for analysis.
Data were acquired using a Nexera XR HPLC (Shimadzu) coupled with a QTRAP 6500 (SCIEX), and was analyzed with Analyst 1.6 (SCIEX). The positive-ion mode data were obtained using multiple reaction monitoring (MRM). The instrumental source setting for curtain gas, ion spray voltage, temperature, ion source gas 1, and ion source gas 2 were 30 psi, 5500 V, 500 C, […], respectively.
Mobile phase A consisted of water containing 0.1% formic acid and mobile phase B was methanol containing 0.1% formic acid. […] The injection volume per sample was 10 μl. Samples were kept at 4 °C in the autosampler tray prior to injection.
The data were measured using standard curves and quality controls, but it was not validated to ICH guidelines. […] Quality control standards (low, middle and high) were prepared by adding the spiking standard to solution to 25 μl of serum and/or a half-brain and relative values are reported.

[3] = molecular target: T2, hM3Dq (Homo sapiens, UniProt P20309, A239G/Y149C)
T2 sequence (P20309 whole entry Y149C/A239G): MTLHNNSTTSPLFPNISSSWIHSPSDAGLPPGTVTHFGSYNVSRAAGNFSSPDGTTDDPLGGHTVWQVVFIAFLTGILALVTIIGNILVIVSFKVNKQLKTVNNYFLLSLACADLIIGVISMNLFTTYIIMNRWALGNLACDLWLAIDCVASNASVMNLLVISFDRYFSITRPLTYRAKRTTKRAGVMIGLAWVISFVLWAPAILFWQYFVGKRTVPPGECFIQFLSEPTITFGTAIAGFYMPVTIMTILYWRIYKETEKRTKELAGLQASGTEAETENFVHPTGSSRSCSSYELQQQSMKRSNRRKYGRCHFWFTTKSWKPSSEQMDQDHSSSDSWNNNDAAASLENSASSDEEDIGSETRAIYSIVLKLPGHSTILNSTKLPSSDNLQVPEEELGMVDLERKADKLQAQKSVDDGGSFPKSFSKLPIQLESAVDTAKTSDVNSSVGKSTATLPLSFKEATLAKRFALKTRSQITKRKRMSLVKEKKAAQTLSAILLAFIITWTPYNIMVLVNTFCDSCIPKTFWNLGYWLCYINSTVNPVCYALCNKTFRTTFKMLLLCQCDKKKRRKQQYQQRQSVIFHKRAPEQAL
Description: Wild-type mice (C57BL/6J) were ordered from Jackson Laboratories and rats (Sprague–Dawley) were ordered from Charles River. Rodents were male and ordered at ~6 weeks of age. Transgenic mice were bred at NIDA breeding facility. […] Three male rhesus monkeys (Macaca mulatta) weighed 8–12 kg. All experiments and procedures complied with all relevant ethical regulations for animal testing and research and followed NIH guidelines and were approved by each institute’s animal care and use committees.
Ten minutes after injection, animals were placed in an open field arena (Opto-varimex ATM3, Columbus Instruments) and their locomotor activity was tracked during 60 min as infrared beam crossings and traveled distance was converted to cm. Animals were repeatedly tested on consecutive sessions (after an initial habituation session with no drug treatment) in a counterbalanced design.

[4] = molecular target: T2, hM3Dq; test: [3H]clozapine competition binding, membranes of HEK-293 cells expressing hM3Dq
Procedure: (§1) Cells were routinely tested for myclopasma contamination (MycoAlert® Mycoplasma Detection Kit, Lonza). Cells were seeded on 60 cm^2 dishes at 4 × 10^6 cells/dish 24 h before transfection. The indicated amount of cDNA was transfected into HEK-293 cells using polyethylenimine (PEI; Sigma-Aldrich) in a 1–2 DNA:PEI ratio. Cell harvesting for radioligand binding experiments or signaling assays were performed approximately 48 h after transfection.
(§2) Cells were suspended in Tris-HCl 50 mM pH 7.4 supplemented with protease inhibitor cocktail (1:100, Sigma-Aldrich, St. Louis, MO, USA). The dissected brain tissue was diluted in Tris-HCl 50 mM buffer supplemented with protease inhibitor cocktail (1:1000). HEK-293 cells or brain tissue were disrupted with a Polytron homogenizer (Kinematica, Basel, Switzerland). Homogenates were centrifuged at 48,000g (50 min, 4 °C) and washed twice in the same conditions to isolate the membrane fraction. Protein was quantified by the bicinchoninic acid method (Pierce). […] In all cases, free and membrane-bound radioligand were separated by rapid filtration of 500-μl aliquots in a 96-well plate harvester (Brandel, Gaithersburg, MD, USA) and washed with 2 ml of ice-cold Tris-HCl buffer. […] One-site competition curves were fitted using Prism 7 (GraphPad Software, La Jolla, CA, USA). Ki values were calculated using the Cheng–Prusoff equation.

[5] = molecular target: T3, hM4Di (Homo sapiens, UniProt P08173, A203G/Y113C); test: [3H]clozapine competition binding, membranes of HEK-293 cells expressing hM4Di
T3 sequence (P08173 1-479 Y113C/A203G): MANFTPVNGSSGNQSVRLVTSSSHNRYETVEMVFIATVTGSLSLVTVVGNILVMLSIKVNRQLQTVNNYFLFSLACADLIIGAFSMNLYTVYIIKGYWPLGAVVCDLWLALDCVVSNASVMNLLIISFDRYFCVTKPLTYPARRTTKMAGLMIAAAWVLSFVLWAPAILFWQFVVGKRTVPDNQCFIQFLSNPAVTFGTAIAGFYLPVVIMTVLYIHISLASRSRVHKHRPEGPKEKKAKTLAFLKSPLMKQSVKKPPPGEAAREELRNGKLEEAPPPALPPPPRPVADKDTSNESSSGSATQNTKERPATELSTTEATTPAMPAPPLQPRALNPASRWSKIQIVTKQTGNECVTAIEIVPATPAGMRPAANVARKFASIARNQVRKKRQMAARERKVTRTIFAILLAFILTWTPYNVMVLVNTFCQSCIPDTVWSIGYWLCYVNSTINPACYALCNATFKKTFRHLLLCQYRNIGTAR
Procedure: as §1, §2

[6] = system: 5-HT receptors; test: Binding and enzyme target profile screen (Eurofins); conditions: competitive binding screen
Procedure: These experiments were performed by an outside vendor (Eurofins, France). […] In each experiment, the respective reference compound was tested concurrently with the test compound to assess the assay reliability. […] Following incubation, the samples were filtered rapidly under vacuum through glass fiber filters presoaked in a buffer and rinsed several times with an ice-cold buffer using a 48-sample or 96-sample cell harvester. The filters were counted for radioactivity in a scintillation counter using a scintillation cocktail.

[7] = molecular target: T2, hM3Dq; test: Autoradiography: displacement of [3H]clozapine from hM3Dq in mouse brain sections; format: binding; set-up: 026220; host or cells: mouse brain, dopamine D1 receptor-expressing neurons (transgene); conditions: hM3Dq and hM4Di; up to 10 nM
Description: Flash frozen tissue (both rodents and the monkey) was sectioned (20 µm) on a cryostat (Leica, Germany) and thaw mounted onto ethanol-washed glass slides. […] Slides were air dried and placed in a Hypercassette™ (Amersham Biosciences) and covered with a BAS-TR2025 Storage Phosphor Screen (FujiFilm, Japan). The slides were exposed to the screen for 5–7 days and imaged using a phosphor imager (Typhoon FLA 7000; GE Healthcare).

[8] = D1-hM3Dq mice, 0.01 to 1 mg kg-1

Row | Compound | P-gp substrate [1] | affinity at 5-HT receptors relative to clozapine [6] | Kp ([2]; time 10) | Kp ([2]; time 30) | Kp ([2]; time 60) | Kp ([2]; time 120) | Kp ([2]; time 240) | brain to serum concentration ratio ([2]; mice) | brain concentration, mean ([2]; mice, time 10) | serum concentration, mean ([2]; mice, time 10) | brain concentration, mean ([2]; mice, time 30) | serum concentration, mean ([2]; mice, time 30) | brain concentration, mean ([2]; mice, time 60) | serum concentration, mean ([2]; mice, time 60) | brain concentration, mean ([2]; mice, time 120) | serum concentration, mean ([2]; mice, time 120) | brain concentration, mean ([2]; mice, time 240) | serum concentration, mean ([2]; mice, time 240) | locomotor activity [3, 8] | Ki [4] [nM] | other results
1 | c1ccc2c(c1)N=C(N1CCNCC1)c1ccccc1N2 [C21] | none of these compounds is a substrate for P-gp |  |  |  |  |  |  |  |  |  |  |  |  |  |  |  |  |  |  |  | brain/serum concentration ratio ([2]; mice, time 10): 0.1059; brain/serum concentration ratio ([2]; mice, time 30): 0.2543; brain/serum concentration ratio ([2]; mice, time 60): 0.2987; brain/serum concentration ratio ([2]; mice, time 120): 0.4106; brain/serum concentration ratio ([2]; mice, time 240): 0.6284; brain/serum ratio ([2]; mice, systemic administration): low brain/serum ratios; behavior ([3]; D1-hM3Dq mice, 10 mg/kg): seizure-like behavior; locomotor activity ([3]; D1-hM3Dq mice, 0.1 and 1 mg/kg): robust decrease of locomotor activity; lowest dose activating hM3Dq ([3]; rodents (rats and mice)): 0.1 mg/kg; less affinity than CLZ ([4]; DREADDs in HEK-293 cells): 100 fold; Ki ([4]; read-out: affinity (approximate, for equipotent concentrations), DREADD not specified): ~200 nM; Ki ([4]; read-out: hM3Dq Ki): 230 nM; Ki ([5]; read-out: hM4Di Ki, [3H]clozapine competition, HEK-293 membranes): 91 nM
2 | CCN1CCN(C2=Nc3cc(Cl)ccc3Nc3cccc(F)c32)CC1 [JHU37152, 8-Chloro-11-(4-ethylpiperazin-1-yl)-1-fluoro-5H-dibenzo[b,e][1,4]diazepine] | Neither JHU37152 nor JHU37160 were P-gp substrates | lower affinity than clozapine | 3.52 | 6.76 | 5.99 | 4.52 | 3.05 | ~eightfold higher in the brain than serum | 58.5075 | 16.6091 | 52.9484 | 6.63 | 40.9216 | 6.9214 | 7.985 | 2.387 | 2.907 | 1.533 | selectively inhibiting locomotor activity | 1.8 | P-gp substrate ([1]; listed as J52): none of these compounds is a substrate for P-gp; Ki [5]: 8.7 nM; in situ [3H]clozapine displacement in brain tissue from WT and D1-DREADD mice [7]: selective [^3H]clozapine displacement from DREADDs and not from other clozapine-binding sites
3 | CCN1CCN(C2=Nc3cc(Cl)ccc3Nc3c(F)cccc32)CC1 [JHU37160, 8-Chloro-11-(4-ethylpiperazin-1-yl)-4-fluoro-5H-dibenzo[b,e][1,4]diazepine] | Neither JHU37152 nor JHU37160 were P-gp substrates | lower affinity than clozapine | 6.45 | 8.48 | 12.9 | 9.72 | 15.4 | ~eightfold higher in the brain than serum | 15.2721 | 2.637 | 9.242 | 1.58 | 8.73 | 0.7534 | 8.1596 | 0.8413 | 3.199 | 0.319 | selectively inhibiting locomotor activity | 1.9 | P-gp substrate ([1]; listed as J60): none of these compounds is a substrate for P-gp; Ki [5]: 3.6 nM; improved affinity compared to C21 [5]: ~ 25 fold; in situ [3H]clozapine displacement in brain tissue from WT and D1-DREADD mice [7]: selective [^3H]clozapine displacement from DREADDs and not from other clozapine-binding sites
